Source: ChEMBL document CHEMBL4342517, “Design, Synthesis, and Mechanism Study of Benzenesulfonamide-Containing Phenylalanine Derivatives as Novel HIV-1 Capsid Inhibitors with Improved Antiviral Activities” (J Med Chem, 2020)
The source made the active and inactive calls. No cut-off for these calls is given here.

Key:
[1] = Acute toxicity in Kunming mouse assessed as induction of abnormal behaviors by measuring lethargy at 1000 mg/kg, ig administered as single dose; format: organism-based; settings: in vivo, po
[2] = Half life in Sprague-Dawley rat at 20 mg/kg, po measured during 5 mins to 12 hrs by LC-MS analysis; settings: in vivo
[3] = Mean residence time (0 to infinity) in Sprague-Dawley rat at 2 mg/kg, iv measured during 5 mins to 12 hrs by LC-MS analysis; settings: in vivo
TZM = experiment: Cytotoxicity in uninfected human TZM-bl assessed as reduction in cell viability incubated for 1 day by Cyto-tox-Glo cytotoxicity assay; format: cell-based; settings: 24 h
[4] = test system: Human immunodeficiency virus 1; experiment: Antiviral activity against HIV1 Env-pseudotyped virus in human U87.CD4.CCR5 target cells assessed as reduction in viral infection at early stage; format: functional, organism-based; settings: Human immunodeficiency virus 1, U87/CD4/CCR5
in vivo [5] = settings: Sprague-Dawley, rat, iv, 2 mg/kg
MT4 = experiment: Cytotoxicity in mock-infected human MT4 assessed as reduction in cell viability incubated for 5 days by MTT assay; format: cell-based; settings: mt4, 120 h
[6] = Acute toxicity in Kunming mouse assessed as increase in body weight at 1000 mg/kg, ig administered as single dose; format: organism-based; settings: in vivo, po
[7] = test system: Human immunodeficiency virus 2; experiment: Antiviral activity against HIV2 ROD infected in human MT4 cells assessed as reduction in virus-induced cell death incubated for 5 days by MTT assay; settings: Human immunodeficiency virus 2, ISOLATE ROD, MT4, 120 h
[8] = Acute toxicity in Kunming mouse assessed as induction of abnormal behaviors by measuring clonic convulsion at 1000 mg/kg, ig administered as single dose; format: organism-based; settings: in vivo, po
[9] = Acute toxicity in Kunming mouse assessed as induction of abnormal behaviors by measuring anorexia at 1000 mg/kg, ig administered as single dose; format: organism-based; settings: in vivo, po
[10] = Cmax in Sprague-Dawley rat at 2 mg/kg, iv measured during 5 mins to 12 hrs by LC-MS analysis; format: ADME, organism-based; design: dose 2 mg/kg, route intravenous; settings: in vivo
in vitro [11] = settings: human, liver microsomes
Description: Stability in human liver microsomes assessed as compound remaining level incubated for 60 mins in presence of NADPH regenerating system by LC-MS/MS analysis

[12] = Oral bioavailability in Sprague-Dawley rat at 20 mg/kg measured during 5 mins to 12 hrs by LC-MS analysis; format: ADME, organism-based; settings: in vivo
[13] = Half life in Sprague-Dawley rat at 2 mg/kg, iv measured during 5 mins to 12 hrs by LC-MS analysis; settings: in vivo
[14] = test system: Human immunodeficiency virus 1; experiment: Antiviral activity against HIV1 Env-pseudotyped virus in human U87.CD4.CCR5 target cells assessed as reduction in viral infection at late stage; format: functional, organism-based; settings: Human immunodeficiency virus 1, U87/CD4/CCR5
[15] = biological target: Structural capsid protein (Human immunodeficiency virus 1) (UniProt Q76129); experiment: Inhibition of HIV1 NL4-3 capsid protein assembly at 50 uM measured every 1 min for 19 mins
[16] = test system: Human immunodeficiency virus 1; experiment: Antiviral activity against HIV1 NL4-3 infected in human TZM-bl cells assessed as reduction in virus induced cytopathogenicity incubated for 1 day by luciferase reporter gene assay; format: functional, organism-based; settings: Human immunodeficiency virus 1, NL4-3, TZM-bl, 24 h
[17] = Cmax in Sprague-Dawley rat at 20 mg/kg, po measured during 5 mins to 12 hrs by LC-MS analysis; format: ADME, organism-based; design: dose 20 mg/kg, route oral; settings: in vivo
in vivo [18] = settings: Sprague-Dawley, rat, po, 20 mg/kg
[19] = AUC (0 to infinity) in Sprague-Dawley rat at 2 mg/kg, iv measured during 5 mins to 12 hrs by LC-MS analysis; format: ADME, organism-based; design: dose 2 mg/kg, time infinity, route intravenous; settings: in vivo
[20] = Acute toxicity in Kunming mouse assessed as induction of abnormal behaviors by measuring ruffled fur at 1000 mg/kg, ig administered as single dose; format: organism-based; settings: in vivo, po
[21] = AUC (0 to t) in Sprague-Dawley rat at 2 mg/kg, iv measured during 5 mins to 12 hrs by LC-MS analysis; format: ADME, organism-based; design: dose 2 mg/kg, time 0.083-12 hr, route intravenous; settings: in vivo
[22] = Clearance in Sprague-Dawley rat at 2 mg/kg, iv measured during 5 mins to 12 hrs by LC-MS analysis; format: ADME, organism-based; settings: in vivo
in vitro [23] = settings: human, liver microsomes; remark: listed apart in the source
Description: Stability in human liver microsomes assessed as compound remaining level incubated for 60 mins in absence of NADPH regenerating system by LC-MS/MS analysis

[24] = human, microsomes
Description: Intrinsic clearance in human liver microsomes in presence of NADPH regenerating system by LC-MS/MS analysis

[25] = Stability in human plasma assessed as compound remaining level at 2 uM incubated for 120 mins at 37 degC by LC-MS/MS analysis; format: ADME, cell-free; settings: 2 h
[26] = Mean residence time (0 to infinity) in Sprague-Dawley rat at 20 mg/kg, po measured during 5 mins to 12 hrs by LC-MS analysis; settings: in vivo
[27] = test system: Human immunodeficiency virus 1; experiment: Antiviral activity against HIV1 3B infected in human MT4 cells assessed as reduction in virus-induced cell death incubated for 5 days by MTT assay; format: functional, organism-based; settings: Human immunodeficiency virus 1, 3B, MT4, 120 h
[28] = Acute toxicity in Kunming mouse assessed as induction of animal death at 1000 mg/kg, ig administered as single dose; format: organism-based; settings: in vivo, po
[29] = AUC (0 to infinity) in Sprague-Dawley rat at 20 mg/kg, po measured during 5 mins to 12 hrs by LC-MS analysis; format: ADME, organism-based; design: dose 20 mg/kg, time infinity, route oral; settings: in vivo
[30] = Volume of distribution in Sprague-Dawley rat at 2 mg/kg, iv measured during 5 mins to 12 hrs by LC-MS analysis; format: ADME, organism-based; settings: in vivo

Sequence of Structural capsid protein (Human immunodeficiency virus 1) (Q76129 as listed by the source): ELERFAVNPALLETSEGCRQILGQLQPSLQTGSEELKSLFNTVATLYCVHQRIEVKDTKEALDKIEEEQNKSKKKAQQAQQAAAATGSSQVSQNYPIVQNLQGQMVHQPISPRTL

With COc1ccc(N(C)C(=O)[C@H](Cc2ccccc2)NC(=O)CN2CCN(S(=O)(=O)c3ccc(N)cc3)CC2=O)cc1 the Activity [1] was “Non-Toxic”, the half-life [2] was 72 min and the MRT inf [3] was 42 min. The CC50 (TZM) was over 34500 nM, the IC50 [4] was 8.96 nM and the Tmax (in vivo [5]) was 4.98 min. The CC50 (MT4) was 179000 nM, the Activity [6] was “Non-Toxic” and the EC50 [7] was 31 nM. The Activity [8] was “Non-Toxic”, the Activity [9] was “Non-Toxic” and the Cmax [10] was 1280 ng/mL. The remaining at 1 h (in vitro [11]) was 0%, the F [12] was 23% and the half-life [13] was 60 min. For the same compound, the IC50 [14] was 240 nM, the inhibition [15] was “Active” and the EC50 [16] was 90 nM. The Cmax [17] was 83.8 ng/mL, the Tmax (in vivo [18]) was 15 min and the AUC [19] was 511.5 ng·h/mL. The Activity [20] was “Non-Toxic”, the AUC(0-t) [21] was 506 ng·h/mL and the clearance [22] was 67.7 mL/min/kg. It also gave a remaining at 1 h (in vitro [23]) of 93.4%, a CLH [24] of 342 µL/min/mg and a Stability [25] of 88.5%. The MRT inf [26] was 108 min, the EC50 [27] was 210 nM and the Activity [28] was “Non-Toxic”. The AUC [29] was 120.6 ng·h/mL and the Vd [30] was 5.75 L/kg.
